Experimental findings from US20130109693A1, “DERIVATIVES OF PYRIDO [3,2-D] PYRIMIDINE, METHODS FOR PREPARATION THEREOF AND THERAPEUTIC USES THEREOF” (UNIVERSITE D'ORLEANS, priority 2010, published 2013) are described below.

Bounds are passed on as bounds.

Turning to `Clc1cnc2c(-c3ccccc3)nc(-c3ccccc3)nc2c1` [Compound 4, 7-Chloro-2,4-diphenyl-pyrido[3,2-d]pyrimidine], the melting point was 120 to 121 °C.
To `COc1ccc(-c2nc(-c3ccccc3)c3ncc(Cl)cc3n2)cc1` [Compound 5, 7-Chloro-2-(4-methoxyphenyl)-4-phenyl-pyrido[3,2-d]pyrimidine] belongs 193 to 194 °C.
In the case of `COc1cccc(-c2nc(-c3ccccc3)c3ncc(Cl)cc3n2)c1` [Compound 6, 7-Chloro-2-(3-methoxyphenyl)-4-phenyl-pyrido[3,2-d]pyrimidine], the melting point is 112 to 113 °C.
For `COc1ccccc1-c1nc(-c2ccccc2)c2ncc(Cl)cc2n1` [Compound 7, 7-Chloro-2-(2-methoxyphenyl)-4-phenyl-pyrido[3,2-d]pyrimidine], the melting point is 116 to 117 °C.
In turn, `COc1ccc(-c2cnc3c(-c4ccccc4)nc(-c4cccc(OC)c4)nc3c2)cc1` [Compound 8, 2-(3-Methoxyphenyl)-7-(4-methoxyphenyl)-4-phenyl-pyrido[3,2-d]-pyrimidine] registered a melting point of 147 to 148 °C.
With `COc1cccc(-c2nc(-c3ccccc3)c3ncc(-c4ccc(C(C)=O)cc4)cc3n2)c1` [Compound 9, 7-(4-Acetylphenyl)-2-(3-methoxyphenyl)-4-phenyl-pyrido[3,2-d]pyrimidine] the figure was 133 to 134 °C; with `COc1cccc(-c2nc(-c3ccccc3)c3ncc(-c4ccco4)cc3n2)c1` [Compound 12, 7-(2-Furyl)-2-(3-methoxyphenyl)-4-phenyl-pyrido[3,2-d]pyrimidine], 131 to 132 °C; with `COc1cccc(-c2nc(-c3ccccc3)c3ncc(-c4cccnc4)cc3n2)c1` [Compound 13, 2-(3-Methoxyphenyl)-4-phenyl-7-(3-pyridyl)-pyrido[3,2-d]pyrimidine], 134 to 135 °C.
With `COc1cccc(-c2nc(-c3ccccc3)c3ncc(-c4csc5ccccc45)cc3n2)c1` [Compound 14, 7-(3-Benzothienyl)-2-(3-methoxyphenyl)-4-phenyl-pyrido[3,2-d]pyrimidine] the figure was 112 to 113 °C; with `COc1cccc(-c2nc(-c3ccccc3)c3ncc(-c4cccs4)cc3n2)c1` [Compound 15, 2-(3-Methoxyphenyl)-4-phenyl-7-(2-thienyl)-pyrido[3,2-d]pyrimidine], 140 to 141 °C.
To `Oc1cccc(-c2ncc3ncc(Cl)cc3n2)c1` [Compound 18, 7-Chloro-2-(3-hydroxyphenyl)-pyrido[3,2-d]pyrimidine] belongs 252 to 253 °C; to `Oc1ccccc1-c1ncc2ncc(Cl)cc2n1` [Compound 19, 7-Chloro-2-(2-hydroxyphenyl)-pyrido[3,2-d]pyrimidine], 211 to 212 °C; to `Oc1ccc(-c2ncc3ncc(-c4ccc(S)cc4)cc3n2)cc1` [Compound 27, 2-(4-Hydroxyphenyl)-7-(4-mercaptophenyl)-pyrido[3,2-d]pyrimidine], 222 to 223 °C.
The molecule `N#Cc1ccc(-c2cnc3cnc(-c4ccc(O)cc4)nc3c2)cc1` [Compound 28, 2-(4-Hydroxyphenyl)-7-(4-cyanophenyl)-pyrido[3,2-d]pyrimidine] showed a melting point of 313 to 314 °C.
To `N#Cc1cccc(-c2cnc3cnc(-c4ccc(O)cc4)nc3c2)c1` [Compound 29, 2-(4-Hydroxyphenyl)-7-(3-cyanophenyl)-pyrido[3,2-d]pyrimidine] belongs over 268 °C; to `Oc1ccc(-c2cnc3cnc(-c4cccc(O)c4)nc3c2)cc1` [Compound 30, 2-(3-Hydroxyphenyl)-7-(4-hydroxyphenyl)-pyrido[3,2-d]pyrimidine], over 268 °C; to `Oc1ccc(-c2cnc3cnc(-c4ccccc4O)nc3c2)cc1` [Compound 31, 2-(2-Hydroxyphenyl)-7-(4-hydroxyphenyl)-pyrido[3,2-d]pyrimidine], over 268 °C.
With `Oc1ccc(-c2ncc3ncc(-c4ccoc4)cc3n2)cc1` [Compound 36, 2-(4-Hydroxyphenyl)-7-(3-furyl)-pyrido[3,2-d]pyrimidine] the figure was over 268 °C; with `O=Cc1ccc(-c2cnc3cnc(-c4ccc(O)cc4)nc3c2)cc1` [Compound 42, 2-(4-Hydroxyphenyl)-7-(4-formylphenyl)-pyrido[3,2-d]pyrimidine], over 268 °C; with `COc1cc(O)ccc1-c1cnc2cnc(-c3ccc(O)cc3)nc2c1` [Compound 43, 2-(4-hydroxyphenyl)-7-(2-methoxy-4-hydroxyphenyl)-pyrido[3,2-d]pyrimidine], 207 to 208 °C.
In turn, `O=Cc1cccc(-c2cnc3cnc(-c4ccc(O)cc4)nc3c2)c1` [Compound 44, 2-(4-Hydroxyphenyl)-7-(3-formylphenyl)-pyrido[3,2-d]pyrimidine] had a melting point of 266 °C.
As for `OCc1cccc(-c2cnc3cnc(-c4ccc(O)cc4)nc3c2)c1` [Compound 45, 2-(4-Hydroxyphenyl)-7-(3-hydroxymethylphenyl)-pyrido[3,2-d]pyrimidine], the melting point was determined as 232 °C.
`Oc1ccc(-c2ncc3ncc(Nc4ccncc4)cc3n2)cc1` [Compound 55, 2-(4-Hydroxyphenyl)-7-(4-pyridinylamino)-pyrido[3,2-d]pyrimidine] displayed a melting point of over 268 °C.
To `Oc1ccc(-c2ncc3ncc(Nc4ccccn4)cc3n2)cc1` [Compound 57, 2-(4-Hydroxyphenyl)-7-(2-pyridinylamino)-pyrido[3,2-d]pyrimidine] belongs over 268 °C; to `Oc1ccc(Nc2cnc3cnc(-c4ccc(O)cc4)nc3c2)cc1` [Compound 58, 2-(4-Hydroxyphenyl)-7-(4-hydroxyphenylamino)-pyrido[3,2-d]pyrimidine], 168 to 170 °C; to `COCOc1ccc(-c2ncc3ncc(Cl)cc3n2)cc1` [Compound 64, 7-Chloro-2-(4-methoxymethoxy-phenyl)-pyrido[3,2-d]pyrimidine], over 268 °C.
To `COCOc1ccc(-c2ncc3ncc(NC(=O)c4cccnc4)cc3n2)cc1` [Compound 65, N-[2-(4-Methoxymethoxy-phenyl)-pyrido[3,2-d]pyrimidin-7-yl]-nicotinamide] belongs 232 °C; to `COCOc1ccc(-c2ncc3ncc(N4CCCCC4=O)cc3n2)cc1` [Compound 66, 1-[2-(4-Methoxymethoxy-phenyl)-pyrido[3,2-d]pyrimidin-7-yl]-piperidin-2-one], 202 to 204 °C; to `COCOc1ccc(-c2ncc3ncc(N4CCNCC4=O)cc3n2)cc1` [Compound 67, 1-[2-(4-Methoxymethoxy-phenyl)-pyrido[3,2-d]pyrimidin-7-yl]-piperazin-2-one], 200 to 202 °C.
With `O=C(Nc1cnc2cnc(-c3ccc(O)cc3)nc2c1)c1cccnc1` [Compound 68, N-[2-(4-Hydroxy-phenyl)-pyrido[3,2-d]pyrimidin-7-yl]nicotinamide] the figure was 226 to 228 °C.
Regarding `O=C1CCCCN1c1cnc2cnc(-c3ccc(O)cc3)nc2c1` [Compound 69, 1-[2-(4-Hydroxy-phenyl)-pyrido[3,2-d]pyrimidin-7-yl]-piperidin-2-one], the melting point lay in the range of 268 to 270 °C.
The molecule `O=C1CNCCN1c1cnc2cnc(-c3ccc(O)cc3)nc2c1` [Compound 70, 1-[2-(4-Hydroxy-phenyl)-pyrido[3,2-d]pyrimidin-7-yl]-piperazin-2-one] yielded a melting point of over 268 °C.
Molecule `O=C(Nc1cnc2cnc(-c3ccc(O)cc3)nc2c1)c1ccncc1` [Compound 71, N-[2-(4-Hydroxy-phenyl)-pyrido[3,2-d]pyrimidin-7-yl]isonicotinamide] displayed a melting point of 230 to 232 °C.
With `O=C1CCCN1c1cnc2cnc(-c3ccc(O)cc3)nc2c1` [Compound 72, 1-[2-(4-Hydroxy-phenyl)-pyrido[3,2-d]pyrimidin-7-yl]-pyrrolidin-2-one] the figure was over 268 °C.
`COCOc1ccc(-c2ncc3ccc(-c4csc(CN5CCCCC5)c4)nc3n2)cc1` [Compound 75, 2-(4-Methoxymethoxy-phenyl)-7-(5-piperidin-1-ylmethyl-thiophen-3-yl)-pyrido[2,3-d]pyrimidine] had a melting point of over 268 °C.
Molecule `COCOc1ccc(-c2ncc3ccc(-c4csc(CN5CCOCC5)c4)nc3n2)cc1` [Compound 76, 2-(4-Methoxymethoxy-phenyl)-7-(5-morpholin-4-ylmethyl-thiophen-3-yl)-pyrido[2,3-d]pyrimidine] yielded a melting point of over 268 °C.
To `COCOc1ccc(-c2ncc3ccc(-c4csc(CN5CCN(C)CC5)c4)nc3n2)cc1` [Compound 77, 2-(4-Methoxymethoxy-phenyl)-7-[5-(4-methyl-piperazin-1-ylmethyl)-thiophen-3-yl]-pyrido[2,3-d]pyrimidine] belongs over 268 °C; to `Oc1ccc(-c2ncc3ccc(-c4csc(CN5CCCCC5)c4)nc3n2)cc1` [Compound 78, 4-[7-(5-Piperidin-1-ylmethyl-thiophen-3-yl)-pyrido[2,3-d]pyrimidin-2-yl]-phenol], over 268 °C; to `Oc1ccc(-c2ncc3ccc(-c4csc(CN5CCOCC5)c4)nc3n2)cc1` [Compound 79, 4-[7-(5-Morpholin-4-ylmethyl-thiophen-3-yl)-pyrido[2,3-d]pyrimidin-2-yl]-phenol], over 268 °C.
With `OCCNc1nc(NCc2ccccc2)c2ncc(Cl)cc2n1` [Compound 82, 4-Benzylamino-7-chloro-2-(2-hydroxyethylamino)-pyrido[3,2-d]pyrimidine] the figure was 106 to 107 °C; with `OCCNc1nc(NCc2ccccc2)c2ncc(Nc3ncncn3)cc2n1` [Compound 88, 4-Benzylamino-2-(2-hydroxyethylamino)-7-(1,3,5-triazinylamino)-pyrido[3,2-d]pyrimidine], 202 to 203 °C.
